Experimental findings from ChEMBL document CHEMBL1201862, “PubChem BioAssay data set” (2004) are described below.

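Cells were grown in 96-well plates and exposed to each compound for 48 hours at five concentrations; endpoints were interpolated linearly between bracketing concentrations, or set to the highest concentration if not reached. At the GI50, growth is halved.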 Activity calls are given as the source filed them. No stated cut-off is given here; in the data, active = GI50 up to about 1.1 µM and inactive = higher. Some results are limits rather than exact numbers.

Test systems include NCI-H23; SK-MEL-28; HCC 2998; HCT-116; SW-620; CCRF-CEM; SK-MEL-5; M14; NCI-H226; NCI-H460; OVCAR-5; TK-10; IGROV-1; HT-29; DU-145; NCI-H522; PC-3; HL-60; OVCAR-8.
Holding throughout (assay): NCI tumour cell line growth inhibition, 48 h

Take `Cc1c([N+](=O)[O-])oc2ccc3ccccc3c12`: the GI50 in the assay with NCI-H23 was 11.2 µM (inactive); in the assay on SK-MEL-28 it was > 100 µM (inactive); in the assay with HCC 2998 it was 25.1 µM (inactive); in the assay on HCT-116, 4.26 µM (inactive); in the assay with SW-620 it was 20.2 µM (inactive); with CCRF-CEM, 6.32 µM (inactive). For the same compound, the GI50 was 5.4 µM (inactive) in the assay on SK-MEL-5; 21.5 µM (inactive) in the assay on M14; > 100 µM (inactive) in the assay with NCI-H226; 3.74 µM (inactive) in the assay on NCI-H460; > 100 µM (inactive) in the assay on OVCAR-5; 37.8 µM (inactive) in the assay on TK-10. The GI50 in the assay on IGROV-1 was 12.1 µM (inactive); in the assay with HT-29 it was 14.6 µM (inactive); in the assay with DU-145, 7.74 µM (inactive); in the assay on NCI-H522 it was 3.86 µM (inactive); in the assay on PC-3, 86.9 µM (inactive); in the assay on HL-60, 3.18 µM (inactive). For the same compound, the GI50 in the assay on OVCAR-8 is 26.1 µM (inactive).
With `CC(C)OP(=O)(OC(C)C)C(C(C)C)N(C)/C(N)=N\C1=NC(C(F)(F)F)(C(F)(F)F)N=C(C(C(F)(F)F)C(F)(F)F)O1` (stereo not given), the GI50 with NCI-H23 is 3.61 µM (inactive); with SK-MEL-28, 3.18 µM (inactive); in the assay on HCC 2998, 4.91 µM (inactive); in the assay on HCT-116, 2.31 µM (inactive); in the assay on SW-620 it was 2.28 µM (inactive); in the assay with CCRF-CEM, 0.664 µM (active). Besides, the GI50 with SK-MEL-5 is 1.56 µM (inactive); in the assay with M14, 1.41 µM (inactive); with NCI-H226 it was 2.11 µM (inactive); in the assay with NCI-H460, 2.64 µM (inactive); in the assay with OVCAR-5, 2.55 µM (inactive); in the assay on TK-10 it was 3.61 µM (inactive). Also, the GI50 with IGROV-1 was 2.39 µM (inactive); in the assay with HT-29, 2.46 µM (inactive); in the assay on DU-145 it was 6.9 µM (inactive); in the assay on NCI-H522, 1.41 µM (inactive); in the assay with PC-3, 2.56 µM (inactive); in the assay on HL-60, 1.12 µM (inactive). Further, in the assay with OVCAR-8, the GI50 was 1.99 µM (inactive).
As to `CC1OC2OC3C(OCC(O)C3O)OC(=O)[C@]34CCC(C)(C)CC3C3=CCC5[C@@]6(C)C[C@H](O)[C@H](OC7OC(CO)C(O)C(O)C7OC7OCC(OC(=O)CC(C)(O)CC(=O)OC1C(OC1OC(CO)C(O)C(O)C1O)C2O)C(O)C7O)[C@@](C)(CO)C6CC[C@@]5(C)[C@]3(C)CC4` (stereo not given in full), the GI50 with NCI-H23 is 4.33 µM (inactive); with SK-MEL-28, 1.97 µM (inactive); in the assay on HCC 2998, 2.43 µM (inactive); in the assay with HCT-116 it was 7.11 µM (inactive); in the assay with SW-620, 9.35 µM (inactive); in the assay on CCRF-CEM it was 12.3 µM (inactive). The GI50 was 11.6 µM (inactive) in the assay with SK-MEL-5; 3.41 µM (inactive) with M14; 17.2 µM (inactive) in the assay on NCI-H226; 12 µM (inactive) in the assay on NCI-H460; 8.91 µM (inactive) in the assay on OVCAR-5; 10.8 µM (inactive) in the assay with TK-10. Moreover, the GI50 in the assay on IGROV-1 was 7.53 µM (inactive); in the assay on HT-29 it was 7.78 µM (inactive); with DU-145, 8.09 µM (inactive); in the assay on NCI-H522 it was 11.6 µM (inactive); in the assay with PC-3 it was 7.91 µM (inactive); with HL-60, 1.8 µM (inactive). In addition, the GI50 with OVCAR-8 was 12.3 µM (inactive).
For `CC(C)(CCC(C)(C)N1OC1c1ccccc1)N1OC1c1ccccc1` (stereo not given), the GI50 with NCI-H23 is 55.3 µM (inactive); with SK-MEL-28, > 100 µM (inactive); in the assay with HCC 2998 it was 31.9 µM (inactive); in the assay with HCT-116, 56.8 µM (inactive); in the assay on SW-620, 78 µM (inactive); in the assay with CCRF-CEM it was 9.31 µM (inactive). Moreover, the GI50 in the assay with SK-MEL-5 was 17.5 µM (inactive); in the assay with NCI-H226 it was 76.9 µM (inactive); in the assay on NCI-H460 it was 33 µM (inactive); with TK-10, 22.8 µM (inactive); in the assay on HT-29, 54.7 µM (inactive); in the assay with DU-145 it was 88.7 µM (inactive). The GI50 with NCI-H522 was 7.16 µM (inactive); in the assay with PC-3 it was 19.9 µM (inactive); in the assay on HL-60, 21 µM (inactive); in the assay on OVCAR-8, > 100 µM (inactive).
With `CCCCc1ccc(-n2sc3ncccc3c2=O)cc1`, the GI50 in the assay with NCI-H23 was 15.9 µM (inactive); in the assay on SK-MEL-28 it was 13.9 µM (inactive); in the assay with HCC 2998, 5.35 µM (inactive); in the assay with HCT-116, 11.6 µM (inactive); in the assay on SW-620, 13.9 µM (inactive); in the assay on CCRF-CEM, 2.17 µM (inactive). Besides, the GI50 in the assay with SK-MEL-5 is 11.3 µM (inactive); in the assay on M14, 11.2 µM (inactive); with NCI-H226 it was 7.67 µM (inactive); in the assay with NCI-H460, 5.26 µM (inactive); in the assay with OVCAR-5, 18.5 µM (inactive); with TK-10, 14.4 µM (inactive). Also, the GI50 in the assay on IGROV-1 is 12.3 µM (inactive); with HT-29, 16.1 µM (inactive); in the assay on DU-145, 21 µM (inactive); in the assay on NCI-H522 it was 2.58 µM (inactive); with PC-3 it was 11 µM (inactive); in the assay with HL-60 it was 0.908 µM (active). In addition, the GI50 in the assay with OVCAR-8 is 12.5 µM (inactive).
As for `CCc1c(C)c(C#N)c(=S)n(C2OC(COC(C)=O)C(OC(C)=O)C(OC(C)=O)C2OC(C)=O)c1-c1ccccc1` (stereo not given), the GI50 is > 31.6 µM (inactive) with NCI-H23; > 31.6 µM (inactive) in the assay on SK-MEL-28; > 31.6 µM (inactive) with HCC 2998; 26.7 µM (inactive) in the assay with HCT-116; > 100 µM (inactive) in the assay on SW-620; 33.7 µM (inactive) in the assay with CCRF-CEM. Besides, the GI50 in the assay with SK-MEL-5 was > 31.6 µM (inactive); in the assay with M14, > 31.6 µM (inactive); with NCI-H226, 18.5 µM (inactive); with NCI-H460, > 31.6 µM (inactive); in the assay with OVCAR-5 it was > 31.6 µM (inactive); with TK-10, 22.1 µM (inactive). The GI50 in the assay with IGROV-1 is 23.7 µM (inactive); in the assay on HT-29 it was > 31.6 µM (inactive); in the assay on DU-145, > 31.6 µM (inactive); in the assay with NCI-H522, 26.1 µM (inactive); with PC-3, > 10 µM (inactive); in the assay on HL-60, > 100 µM (inactive). Besides, the GI50 with OVCAR-8 is > 31.6 µM (inactive).
As for `C/C(=N\NC(=S)N(C)C)c1nc2cccnc2[nH]1`, the GI50 with SK-MEL-28 is 1.03 µM (active); in the assay with HCC 2998, 0.71 µM (active); in the assay with HCT-116 it was 0.893 µM (active); in the assay with SW-620, 0.883 µM (active); in the assay on CCRF-CEM, 0.379 µM (active); with SK-MEL-5 it was 0.387 µM (active). Besides, the GI50 in the assay on M14 is 0.547 µM (active); in the assay on NCI-H226, 0.399 µM (active); in the assay with NCI-H460, 0.478 µM (active); in the assay on OVCAR-5, 0.504 µM (active); with TK-10 it was 2.1 µM (inactive); in the assay with IGROV-1 it was 0.804 µM (active). Moreover, the GI50 with HT-29 is 0.548 µM (active); in the assay with DU-145 it was 0.504 µM (active); in the assay with NCI-H522, 1.53 µM (inactive); with PC-3, 0.698 µM (active); in the assay on HL-60 it was 0.323 µM (active); in the assay with OVCAR-8, 0.982 µM (active).
`N=NCC(=O)OC(COCc1ccccc1)COCc1ccccc1`: the GI50 was > 100 µM (inactive) with NCI-H23; > 100 µM (inactive) in the assay with SK-MEL-28; > 100 µM (inactive) with HCC 2998; > 100 µM (inactive) with HCT-116; > 100 µM (inactive) with SW-620; 57.8 µM (inactive) in the assay with CCRF-CEM. The GI50 with SK-MEL-5 was 49.1 µM (inactive); in the assay with NCI-H226 it was > 100 µM (inactive); in the assay on NCI-H460 it was 7.1 µM (inactive); in the assay with OVCAR-5 it was > 100 µM (inactive); in the assay on TK-10, > 100 µM (inactive); in the assay with IGROV-1, > 100 µM (inactive). Besides, the GI50 in the assay with HT-29 was > 100 µM (inactive); with DU-145, 36.3 µM (inactive); in the assay on NCI-H522, > 100 µM (inactive); with PC-3 it was 70 µM (inactive); with HL-60, 56.6 µM (inactive).
Turning to `Cc1ncc2c(=O)c3c(oc2n1)c1ccccc1n3Cc1ccccc1`, the GI50 with NCI-H23, with SK-MEL-28, in the assay with HCC 2998, in the assay on HCT-116, in the assay with SW-620 and with CCRF-CEM was > 100 µM (inactive) each time. Besides, the GI50 in the assay on SK-MEL-5, with NCI-H226, with NCI-H460, with OVCAR-5, with TK-10 and in the assay on IGROV-1 was > 100 µM (inactive) in each case. Moreover, the GI50 in the assay on HT-29, in the assay on DU-145, with NCI-H522, with PC-3, in the assay on HL-60 and with OVCAR-8 was > 100 µM (inactive) each time.
In the case of `Cc1ccc(S(=O)(=O)NNC(=O)c2cc(C)ccc2NC(=O)C23CC4CC(CC(C4)C2)C3)cc1`, the GI50 is 36.1 µM (inactive) with NCI-H23; 30.1 µM (inactive) in the assay with HCC 2998; 31.2 µM (inactive) with HCT-116; 92.9 µM (inactive) with SW-620; > 100 µM (inactive) with CCRF-CEM; 61.5 µM (inactive) in the assay on SK-MEL-5. For the same compound, the GI50 is 84.7 µM (inactive) in the assay on M14; 60.7 µM (inactive) with NCI-H226; 43.8 µM (inactive) in the assay with NCI-H460; > 100 µM (inactive) in the assay on OVCAR-5; 41.8 µM (inactive) in the assay with TK-10; 12.6 µM (inactive) in the assay on IGROV-1. Moreover, the GI50 is > 100 µM (inactive) in the assay with HT-29; 29.6 µM (inactive) in the assay on DU-145; 20.2 µM (inactive) in the assay on NCI-H522; 34.5 µM (inactive) with PC-3; 66.8 µM (inactive) with HL-60; 45.7 µM (inactive) with OVCAR-8.
With `O=C(CNc1ccccc1[N+](=O)[O-])Nn1cnc2ccc(S(=O)(=O)Nc3ccccc3[N+](=O)[O-])cc2c1=O`, the GI50 in the assay with NCI-H23, in the assay with SK-MEL-28, in the assay with HCC 2998, in the assay on HCT-116, in the assay with SW-620 and with CCRF-CEM was > 100 µM (inactive) in each case. Further, the GI50 was > 100 µM (inactive) with M14; > 100 µM (inactive) with NCI-H226; > 100 µM (inactive) in the assay with NCI-H460; > 100 µM (inactive) with OVCAR-5; > 100 µM (inactive) in the assay with TK-10; 78.9 µM (inactive) in the assay on IGROV-1. Besides, the GI50 in the assay with HT-29, in the assay on DU-145, in the assay with NCI-H522, in the assay on PC-3, in the assay on HL-60 and in the assay with OVCAR-8 was > 100 µM (inactive) throughout.
